Assays:
[1] = format: physicochemical
Excerpt: The low solubility in water of certain N-hydroxyurea 5- and/or 12-lipoxygenase inhibitors prevents these beneficial agents from broader use than they would otherwise enjoy if aqueous formulations could be prepared at therapeutically effective concentrations. […] In addition to its poor solubility, zileuton and likely other N-hydroxyurea lipoxygenase inhibitors are predicted to be chemically unstable in aqueous solution for storage at room temperature for prolonged periods of time [Insert Reference]. Degradation is consistent with specific hydronium- or water-catalyzed hydrolysis to afford the carbamic acid, which immediately loses carbon dioxide to generate the hydroxylamine as shown below. [drawing 2]
No buffer catalysis has been observed for zileuton. Using acid- and water-catalyzed rate constants at 25° C., the pseudo first-order rate constant is determined to be approximately 7.8×10^−5 h^−1 over a pH range of about 3.5 to about 7.5. The shelf life at 10% drug loss is calculated to be 57.3 days at an optimal pH of 5.6.
Based on literature data [Alvarez, F J; Slade, R T. Kinetics and mechanism of degradation of zileuton, a potent 5-lipoxygenase inhibitor. Pharm. Res., 1992, 9(11): 1465-1473], zileuton in solution is expected to have adequate short-term stability (at least 1 month at 25° C.) over a pH range of 4 to 7.

[2] = cited from earlier work
[3] = 25° C., pH range of 4 to 7, literature data; cited from earlier work

CC(c1cc2ccccc2s1)N(O)C(N)=O (racemic) [zileuton, ((±)-1-(1-benzo[b]thien-2-ylethyl)-1-hydroxyurea]
pseudo first-order rate constant (degradation) [1]: approximately 7.8×10^−5 h^−1 | shelf life at 10% drug loss ([1]; optimal pH of 5.6, 25° C.): 57.3 days | solubility in acetonitrile ([2]; acetonitrile): slightly soluble | solubility in hexane and water ([2]; hexane and water): practically insoluble | solubility in methanol and ethanol ([2]; methanol and ethanol): soluble | water solubility ([2]; water, 25° C.): 0.08 to 0.14 mg/mL | short-term stability in solution [3]: at least 1 month
